According to paper PMC5686155, “Crystal structures of the mitochondrial deacylase Sirtuin 4 reveal isoform-specific acyl recognition and regulation features” (Nature Communications, 2017):

What was measured:
xSirt4 [1] = assay: MS-based assay of metabolite effects on xSirt4 activity; type: biochemical, Xenopus tropicalis; conditions: n = 2 (Supplementary Fig. 3b)
Experimental: For MS and UV analyzes of deacylation reactions, samples were prepared as described for the coupled continuous assay, stopped by mixing 1:1 with 0.5% TFA after 0 and 60 min, diluted to 20 µM peptide using 0.1% FA, and analyzed by HPLC-separation using a Shimadzu Prominence UFLC (Shimadzu, Duisburg, Germany) coupled to ESI-MS and UV detection. Samples were washed on a Piccolo Proto 200 C4 5 μm 2.5 × 0.5 mm trap column (Higgins Analytical, Mountain View, California) and subsequently subjected to a Jupiter C4 5 μm 300 Å 150 × 1 mm analytical column (Phenomenex, Torrance, California) for reversed phase separation, with 99.9% H2O, 0.1% TFA as buffer A and 99.9% ACN, 0.1% TFA as buffer B. Peptides were eluted over a 20 min gradient from 1 to 55% buffer B, followed by 1 min from 55 to 90% buffer B with 70 µL min^−1 flow-rate. […] We detected in a mass range from 300 to 2500 m/z. […]
Supplementary Figure 3. […] (n=2; error bars: s.d.) e, Inner surfaces of the nucleotide binding sites of Sirt1-6, colored by electrostatic potential calculated with APBS2.1 in PyMOL using PDB IDs 4KXQ (Sirt1), 5D7O (Sirt2), 4BN4 (Sirt3), our xSirt4 structure, PDB IDs 3RIY (Sirt5) and 3K35 (Sirt6). […] The surfaces are colored according to electrostatic potential (red/-15 to blue/+15 kBT/e). f, xSirt4 surface colored by electrostatic potential calculated using APBS2.1 in PyMOL (red/-15 to blue/+15 kBT/e). […]

xSirt4 [2] = assay: Thermal denaturation shift assay; type: binding, Xenopus tropicalis; conditions: 3 µM xSirt4, SYPRO orange, 20 to 73 °C; n = 2
Experimental: Thermal shift assays were performed in 96-well PCR plates using 3 µM xSirt4 (32–315) or 3 µM zSirt4 (29–310) and SYPRO orange (Thermo Fisher, Waltham, MA, USA) covered with 15 µL mineral oil. Heating and fluorescence measurements were performed in a FluoDia T70 with 1 K steps from 20 to 73 °C (excitation: 465 nm, emission: 580 nm). The data were analyzed in GraFit (Erithacus Software Ltd, Horley, UK) by nonlinear fitting using a two state model.

[3] = Non-enzymatic acylation of CPS1 peptide by acyl-CoA (titration); conditions: HMG-CoA titrations
Cyclophilin A (CypA) = target: T1, Cyclophilin A (CypA) (Homo sapiens, UniProt P62937); assay: HMG-CoA modification of recombinant Cyclophilin A, intact protein MS; conditions: CypA 0.4 mg/ml, 8 mM HMG-CoA, 100 mM Tris-HCl pH 8.3, 37 °C, 4 h
T1 construct: expression of a full-length CypA construct in pQE70 (Qiagen) in E. coli M15 cells; made in house; host or cells: E. coli M15
Experimental: The recombinant CypA was prepared through expression of a full-length CypA construct in pQE70 (Qiagen) in E. coli M15 cells and purification by ion exchange chromatography on Fractogel EMD DEAE-650(M), Fractogel TSK AF-Blue, and Fractogel SO3–650(M) (Merck Millipore)[29]. CypA protein (0.4 mg ml^−1) was modified using 8 mM HMG-CoA in 100 mM Tris-HCl buffer pH 8.3 at 37 °C for 4 h. Formation of HMG-ylated protein was confirmed by peptide-MS analyzes after tryptic digest, and by intact HMG-CypA mass analyzes through HPLC-coupled ESI-MS[56]. For intact mass determination, 25 µM HMG-CypA in 10 mM Tris/HCl pH 7.5, 50 mM NaCl was HPLC-separated with the setting described below for peptide MS, using a 30 min gradient from 1 to 55% buffer B (90% ACN, 9.9% H2O, 0.1% FA; buffer A: 5% ACN, 94.9% H2O, 0.1% FA) followed by 1 min of 55–90% buffer B with 70 µL min^−1 flow-rate. MS-analyzes were done with the settings described for peptide assays (below), except that the IntactProtein script was activated, which reduces CEM to 100. Acquired data were extracted with PeakView and deconvoluted in MassLynx in the range of 950–1500 m/z using the MaxEnt I algorithm to a resolution of 1 Da. Peak intensity values were recorded and overlaid using MassLynx.

hSirt4 [4] = target: T2, hSirt4 (Homo sapiens, UniProt Q9Y6E7); assay: HMG-FdL (Fluor-de-Lys-like) de-HMG-ylation assay; type: biochemical
T2 construct: hSirt4(25–314) in pQE30 coding for an N-terminal His6-tag; His6 (N); made in house; host or cells: Escherichia coli CodonPlus(DE3)
T2 sequence (Q9Y6E7 25-314): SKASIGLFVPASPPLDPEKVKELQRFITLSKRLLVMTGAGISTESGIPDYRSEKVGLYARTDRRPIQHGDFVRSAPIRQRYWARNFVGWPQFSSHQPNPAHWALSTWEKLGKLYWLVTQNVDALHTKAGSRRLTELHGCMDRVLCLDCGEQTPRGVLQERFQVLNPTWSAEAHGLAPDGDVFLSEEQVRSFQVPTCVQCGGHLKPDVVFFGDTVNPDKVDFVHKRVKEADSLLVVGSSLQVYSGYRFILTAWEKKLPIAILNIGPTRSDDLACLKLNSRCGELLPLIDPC
Experimental: As a convenient and complementary, fluorescence-based alternative to the coupled enzymatic assay with HMG-peptides, we established substrate and assay corresponding to the popular “Fluor-de-Lys” (FdL) deacylation assays. […] We then employed the FdL-like Sirt4 assay for studying the effects of NAM and NADH, which are not compatible with the coupled assay. […] After 20 min, developer solution (2 mM NAM and 10 mg mL^−1 trypsin) in assay buffer was added 1:1 and samples were incubated for 45 min at room temperature. Fluorescence was measures using a FluoDia T70 with excitation wavelength 365 nm and emission wavelength 465 nm.

hSirt4 [5] = target: T2, hSirt4; assay: Coupled continuous enzymatic assay monitoring NAM release from NAD+ (Sirt4 deacylation); type: biochemical; conditions: coupled enzymatic assay; for effect on Sirt4 de-HMG-ylation activity: HMG-CPS1 peptide; for Sirt4 deacylation signal with CypA protein as substrate: increasing amounts of protein substrate, n = 2 (Fig. 1f)
Experimental: The seven mammalian sirtuins vary in their sequence and acyl preferences[16],[19]. […] We therefore asked whether other acyl modifications would yield deacylation efficiencies expected for a physiologically dominant Sirt4 activity.
The coupled continuous assay was performed as reported. […] Reactions were monitored in microplates at room temperature for 1 h through absorption measurements at 340 nm in a LAMBDAScan plate reader (MWG Biotech, Ebersberg, Germany).

[6] = non-enzymatic; cited from earlier work
Source text: Acetyl transferases employ acetyl-CoA for modifying proteins. However, acetyl-CoA can also non-enzymatically modify proteins, and some other acyl-CoA, such as succinyl-CoA, do so even more efficiently, likely causing the emerging variety of protein acylations[14],[28],[29],[31]. We thus analyzed whether HMG-CoA efficiently acylates peptides and proteins.

[7] = 10 and 100 μM compound, n = 2 (Fig. 4a)

T1 sequence (P62937 whole entry): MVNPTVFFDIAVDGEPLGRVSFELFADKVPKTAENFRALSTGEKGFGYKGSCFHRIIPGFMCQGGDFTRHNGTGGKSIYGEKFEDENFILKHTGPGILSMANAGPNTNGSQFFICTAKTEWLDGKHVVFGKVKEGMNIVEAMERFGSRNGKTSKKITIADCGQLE

O=C(O)CCCC[C@@H]1CCSS1 (racemic) [lipoic acid]
effect on Sirt4 de-HMG-ylation activity (xSirt4 [1]): inhibits
effect on Sirt4 deacetylation activity (xSirt4 [1]): inhibits

Nc1ncnc2c1ncn2[C@@H]1O[C@H](COP(=O)(O)OP(=O)(O)OC[C@H]2OC(O)[C@H](O)[C@@H]2O)[C@@H](O)[C@H]1O (some centres unmarked) [ADPr, ADP-ribose]
Sirt4 stabilization in thermal denaturation shift experiments (xSirt4 [2]): significant Sirt4 stabilization

CC(C)(CO[P@@](=O)(O)O[P@@](=O)(O)OC[C@H]1O[C@@H](n2cnc3c(N)ncnc32)[C@H](O)[C@@H]1OP(=O)(O)O)[C@@H](O)C(=O)NCCC(=O)NCCSC(=O)C[C@@](C)(O)CC(=O)O [HMG-CoA]
bimolecular rate constant of CPS1 peptide acylation [3]: (4.0 ± 0.8)×10^–10 μM^−1 s^−1
number of HMG-modifications on CypA (Cyclophilin A (CypA)): 1–7

Cc1cc(=O)oc2cc(NC(=O)[C@H](CCCCNC(=O)CC(C)(O)CC(=O)O)NC(=O)OCc3ccccc3)ccc12 (stereo partly drawn) [HMG-FdL substrate, 5-(((S)−5-(((benzyloxy)carbonyl)amino)-6-((4-methyl-2-oxo-2H-chromen-7-yl)amino)-6-oxohexyl)amino)-3-hydroxy-3-methyl-5-oxopentanoic acid]
acceptance as Sirt4 substrate (hSirt4 [4]; FdL procedure, fluorescence): readily accepted by Sirt4

NC(=O)c1cccnc1 [NAM, nicotinamide]
Sirt4 stabilization in thermal denaturation shift experiments (xSirt4 [2]): no pronounced effects

O=C(Nc1ccccc1-c1cn2c(CN3CCNCC3)csc2n1)c1cnc2ccccc2n1 [SRT1720]
effect on Sirt4 de-HMG-ylation activity (hSirt4 [5]; 100 μM compound, high error, effect already in control reaction (assay incompatibility)): weak signal decrease
effect on Sirt4 activity in HMG-FdL assay (hSirt4 [4]; 1 µM hSirt4, 500 µM HMG-FdL substrate, 500 µM NAD+, n = 2 (Fig. 4c)): no effect on Sirt4 activity

CC(=O)SCCNC(=O)CCNC(=O)[C@H](O)C(C)(C)COP(=O)(O)OP(=O)(O)OC[C@H]1O[C@@H](n2cnc3c(N)ncnc32)[C@H](O)[C@@H]1OP(=O)(O)O [acetyl-CoA]
bimolecular rate constant k of CPS1 peptide acylation [6]: (1.5 ± 0.4)×10^–10 μM^−1 s^−1

Oc1ccc(/C=C/c2cc(O)cc(O)c2)cc1 [resveratrol]
effect on Sirt4 de-HMG-ylation activity (hSirt4 [5]; [7]): no significant effect

CC(NC(=O)c1ccccc1/N=C/c1c(O)ccc2ccccc12)c1ccccc1 (centres unmarked) [sirtinol]
effect on Sirt4 de-HMG-ylation activity (hSirt4 [5]; [7]): no significant effect

HMG-CypA: recombinant Cyclophilin A modified with HMG-CoA (1–7 HMG-modifications)
Sirt4 deacylation signal with CypA protein as substrate (hSirt4 [5]): strong, substrate concentration dependent signal

Unmodified CypA: recombinant Cyclophilin A, untreated
Sirt4 deacylation signal with CypA protein as substrate (hSirt4 [5]): did not yield a significant deacylation signal
